For assay [1], the species on record is Mus musculus. In words: Compound was evaluated for antinociceptive activity in mouse; IA means inactive. It counts as functional, organism-based.
Assay [2] deals with Delta-type opioid receptor (Rattus norvegicus, UniProt P33533). The assay is described as follows: Compound was evaluated for its ability to displace [3H]p-CI-DPDPE in C6 glioma cells expressing the cloned Opioid receptor delta 1. It is filed as cell-based.
Assay [3] addresses Kappa-type opioid receptor (Rattus norvegicus, UniProt P34975). In words: Compound was evaluated for its ability to displace [3H]U-69593 in CHO cells expressing the cloned Opioid receptor kappa 1. It is filed as cell-based.
The species entered for assay [4] is Mus musculus. The assay is described as follows: Compound was evaluated for antinociceptive activity in mouse using tail flick vs morphine assay. It is filed as functional.
For assay [5], the species on record is Mus musculus. The assay is described as follows: Compound was evaluated for antinociceptive activity in mouse. It is filed as functional.
Assay [6] addresses Mu-type opioid receptor (Rattus norvegicus, UniProt P33535). In words: Compound was evaluated for its ability to displace [3H]DAMGO in C6 glioma cells expressing the cloned Opioid receptor mu 1. It is filed as cell-based.
The target of assay [7] is Opioid receptors; mu & delta (Homo sapiens) (UniProt P41143+P35372). The assay is described as follows: Ratio of binding affinity to mu receptor to that of delta receptor. It counts as protein assay.
For assay [8], the species on record is Mus musculus. The assay is described as follows: Compound was evaluated for antinociceptive activity in mouse using tail flick vs morphine assay; Inactive. It counts as functional, organism-based.
Assay [9] is filed under the species Mus musculus. The assay is described as follows: Compound was evaluated for antinociceptive activity in mouse using hot plate assay; Inactive. It is filed as functional, organism-based. A general note: Hot-plate and tail-flick tests time the reaction to a heat stimulus.
The species named for assay [10] is Mus musculus. The assay is described as follows: Compound was evaluated for antinociceptive activity in mouse using paraphenylquinone assay; Inactive. It counts as functional, organism-based.
For assay [11], the species on record is Mus musculus. The assay is described as follows: Compound was evaluated for antinociceptive activity in mouse using tail flick assay; Inactive. It counts as functional, organism-based.
For assay [12], the species on record is Mus musculus. In words: Compound was evaluated for antinociceptive activity in mouse using hot plate assay. It counts as functional.
For assay [13], the species on record is Mus musculus. The assay is described as follows: Compound was evaluated for antinociceptive activity in mouse using paraphenylquinone assay. It counts as functional.
The species entered for assay [14] is Mus musculus. In words: Compound was evaluated for antinociceptive activity in mouse using tail flick assay. It counts as functional.

Activity calls are given as the source filed them. The calls are words filed in the database; no cut-off is given here.

One may read the Ki as a dissociation constant, usually derived from enzyme kinetics or from competition with a known ligand.

Chain of Opioid receptors; mu & delta (Homo sapiens) (P35372 whole entry, looked up): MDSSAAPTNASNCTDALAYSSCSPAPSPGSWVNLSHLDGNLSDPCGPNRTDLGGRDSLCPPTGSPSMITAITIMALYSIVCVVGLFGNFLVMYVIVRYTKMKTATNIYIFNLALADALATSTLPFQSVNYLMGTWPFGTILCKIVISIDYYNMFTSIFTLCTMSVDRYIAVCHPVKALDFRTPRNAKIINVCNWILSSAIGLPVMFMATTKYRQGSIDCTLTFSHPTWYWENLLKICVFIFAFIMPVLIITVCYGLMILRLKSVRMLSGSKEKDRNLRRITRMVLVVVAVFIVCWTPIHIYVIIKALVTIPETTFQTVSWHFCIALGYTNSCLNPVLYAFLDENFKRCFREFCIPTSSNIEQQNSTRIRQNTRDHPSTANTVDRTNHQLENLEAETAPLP
Chain of Opioid receptors; mu & delta (Homo sapiens) (P41143 whole entry, looked up): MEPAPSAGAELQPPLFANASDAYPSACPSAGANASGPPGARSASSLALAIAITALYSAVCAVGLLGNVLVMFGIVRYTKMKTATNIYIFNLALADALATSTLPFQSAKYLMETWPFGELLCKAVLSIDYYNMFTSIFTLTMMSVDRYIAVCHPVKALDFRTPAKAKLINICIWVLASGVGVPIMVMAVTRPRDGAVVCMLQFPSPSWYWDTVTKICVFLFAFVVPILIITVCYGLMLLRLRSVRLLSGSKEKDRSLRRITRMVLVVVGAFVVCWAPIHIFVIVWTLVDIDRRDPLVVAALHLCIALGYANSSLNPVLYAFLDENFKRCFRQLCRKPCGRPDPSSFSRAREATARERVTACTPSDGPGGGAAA
Chain of Kappa-type opioid receptor (P34975 whole entry): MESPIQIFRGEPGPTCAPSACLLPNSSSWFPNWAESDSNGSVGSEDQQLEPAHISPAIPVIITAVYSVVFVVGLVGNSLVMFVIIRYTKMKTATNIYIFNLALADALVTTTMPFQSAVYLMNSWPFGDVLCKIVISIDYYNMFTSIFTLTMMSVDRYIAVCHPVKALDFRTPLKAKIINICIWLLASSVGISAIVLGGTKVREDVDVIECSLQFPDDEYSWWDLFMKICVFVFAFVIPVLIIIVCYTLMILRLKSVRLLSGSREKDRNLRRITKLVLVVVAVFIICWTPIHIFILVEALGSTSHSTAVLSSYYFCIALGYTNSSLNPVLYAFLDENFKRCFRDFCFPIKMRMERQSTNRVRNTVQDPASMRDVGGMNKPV
Chain of Delta-type opioid receptor (P33533 whole entry): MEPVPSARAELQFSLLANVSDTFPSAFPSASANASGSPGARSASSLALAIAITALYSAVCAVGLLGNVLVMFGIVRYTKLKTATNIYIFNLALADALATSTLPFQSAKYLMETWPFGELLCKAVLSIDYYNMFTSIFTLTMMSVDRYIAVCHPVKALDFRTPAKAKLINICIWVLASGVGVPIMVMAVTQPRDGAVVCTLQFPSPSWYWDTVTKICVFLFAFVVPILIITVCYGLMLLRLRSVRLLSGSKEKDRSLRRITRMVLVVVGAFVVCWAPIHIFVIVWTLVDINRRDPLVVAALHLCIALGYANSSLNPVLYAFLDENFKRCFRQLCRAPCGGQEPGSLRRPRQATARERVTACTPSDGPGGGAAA
Chain of Mu-type opioid receptor (P33535 whole entry): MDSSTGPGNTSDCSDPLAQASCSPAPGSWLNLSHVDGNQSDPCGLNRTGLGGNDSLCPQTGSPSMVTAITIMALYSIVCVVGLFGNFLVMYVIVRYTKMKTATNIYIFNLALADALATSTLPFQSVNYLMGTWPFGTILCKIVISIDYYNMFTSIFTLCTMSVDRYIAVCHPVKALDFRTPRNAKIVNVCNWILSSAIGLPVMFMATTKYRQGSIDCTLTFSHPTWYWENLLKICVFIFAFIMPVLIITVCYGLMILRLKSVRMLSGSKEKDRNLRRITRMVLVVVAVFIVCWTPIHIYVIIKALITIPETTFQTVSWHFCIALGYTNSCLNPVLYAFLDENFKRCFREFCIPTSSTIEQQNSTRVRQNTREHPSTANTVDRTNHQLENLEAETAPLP

On to `Oc1ccc2c3c1O[C@H]1c4[nH]c5ccccc5c4C[C@@]4(O)[C@@H](C2)N(CC2CC2)CC[C@]314` [NALTRINDOLE], for which the outcome in [1] was inactive. Further, the Ki in assay [2] is 0.04 nM; in [3], 5.8 nM.
Compound `C=CCN1CC[C@]23c4c5ccc(O)c4O[C@H]2C(=O)CC[C@@]3(O)[C@H]1C5` [NALOXONE] showed an Activity in assay [4] of 0.04 mg/kg. This compound gave an AD50 in assay [5] of 0.1.
`Oc1ccc2c3c1OC1c4[nH]c5ccccc5c4C[C@@]4(O)[C@@H](C2)N(Cc2ccccc2)CCC314` (some centres undefined): the Ki was 5330 nM in assay [6], 115 nM in [2] and 134 nM in assay [3]. In assay [7], the Ratio came out at 46.
Turning to `Oc1ccc2c3c1OC1c4[nH]c5ccccc5c4C[C@@]4(O)[C@@H](C2)N(CC2CCCCC2)CCC314` (some centres undefined), the Ki was found to be 1920 nM in assay [6], 94.5 nM in [2] and 1110 nM in assay [3]. The outcome in [8], in assay [9], in assay [10] and in [11] was inactive. For the same compound, in assay [7], the Ratio came out at 20.
Compound `CCCN(CC1CC1)C1Cc2ccc(O)c3c2C2C(O3)C(NC(=O)/C=C/C(=O)OC)CC[C@]21O` (some centres undefined) had an AD50 in assay [5] of 1.25 ug brain-1.
For `CN1CC[C@]23c4c5ccc(O)c4O[C@H]2[C@@H](O)C=C[C@H]3[C@H]1C5.CN1CC[C@]23c4c5ccc(O)c4O[C@H]2[C@@H](O)C=C[C@H]3[C@H]1C5.O=S(=O)(O)O`, the Activity is 3.1 mg/kg in assay [12], 0.4 mg/kg in [13] and 0.73 mg/kg in assay [14].
In the case of `Oc1ccc2c3c1O[C@H]1c4[nH]c5c(c4C[C@@]4(O)[C@@H](C2)N(CC2CC2)CC[C@]314)C[C@@]1(O)[C@H]2Cc3ccc(O)c4c3[C@@]1(CCN2CC1CC1)[C@H]5O4`, in [1], the result was inactive.
Regarding `Oc1ccc2c3c1OC1c4[nH]c5ccccc5c4C[C@@]4(O)[C@@H](C2)N(CCC2CCCCC2)CCC314` (some centres undefined), the values for the Activity in assay [12], in [13] and in assay [14] were 2.42 mg/kg, 0.39 mg/kg and 3.86 mg/kg, respectively. Further, the Ki in assay [6] was 7.3 nM; in [2] it was 181 nM; in assay [3] it was 378 nM. Moreover, the Ratio in [7] is 0.

These data come from ChEMBL document CHEMBL1132798 (Bioorg Med Chem Lett, 2000).
